Among the data in patent publication US10131702B2, “Glucagon-GLP-1-GIP triple agonist compounds” (priority 2013, dated 2018) are EC50 values, retold here.

Like-named read-outs stand apart in the source and are kept apart here. Numbered stars: 1 amine (or outer) side, 2 acyl side, 3 side chain; on linkers, the order of the positions; unused ones are H or OH. Square brackets hold non-standard residues; d marks the D form. Side chains are listed from the residue outwards. Peptide text beside a SMILES is read from it. * marks the point of attachment. C18 diacid = O=C(O)CCCCCCCCCCCCCCCCC(=O)*; γGlu = O=C(O)[C@H](CCC(=O)[*:2])N[*:1]; Stearoyl = CCCCCCCCCCCCCCCCCC(=O)*; AEEA = NCCOCCOCC(=O)O; Aib = CC(C)(N)C(=O)O

What all share (format): cell-based
Assay [1] concerns the target T1, human GCG R (Homo sapiens, UniProt P47871).
T1 construct: expressed in transfected cells
Put plainly: cAMP induction in HEK293 cells expressing human GCG R (AlphaScreen cAMP kit).

Assay [2] has as its target T2, human GLP-1 R (Homo sapiens, UniProt P43220).
T2 construct: expressed in transfected cells
Put plainly: cAMP induction in HEK293 cells expressing human GLP-1 R (AlphaScreen cAMP kit). The settings on record: average EC50, cAMP, HEK293 cells expressing human GLP-1 R, read-out: GLP1 R (EC50 in nM). A general note: Bead proximity is the source of the signal in Alpha formats.

Assay [3] deals with T3, human GIP R (Homo sapiens, UniProt P48546).
T3 construct: expressed in transfected cells
T3 sequence (P48546 22-466): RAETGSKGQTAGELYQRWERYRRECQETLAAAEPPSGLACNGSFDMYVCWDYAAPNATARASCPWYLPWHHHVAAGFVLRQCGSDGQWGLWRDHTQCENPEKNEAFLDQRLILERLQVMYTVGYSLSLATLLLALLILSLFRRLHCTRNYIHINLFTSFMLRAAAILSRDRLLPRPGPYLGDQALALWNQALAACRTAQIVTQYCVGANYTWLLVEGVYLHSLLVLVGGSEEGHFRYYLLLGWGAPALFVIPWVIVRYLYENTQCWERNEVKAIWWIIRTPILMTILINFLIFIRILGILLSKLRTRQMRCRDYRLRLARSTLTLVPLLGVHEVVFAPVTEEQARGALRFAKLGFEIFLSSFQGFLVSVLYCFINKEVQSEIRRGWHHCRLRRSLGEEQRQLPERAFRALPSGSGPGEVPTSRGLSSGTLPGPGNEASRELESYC
Put plainly: cAMP induction in HEK293 cells expressing human GIP R (AlphaScreen cAMP kit).
Protocol: Briefly, HEK293 cells expressing the human GIP R, GLP-1 R or GCG R (stable cell lines generated through transfection of the cDNA for human GIP R, GLP-1 R or GCG R and selection of stable clones) were seeded at 30,000 cells/well in 96-well microtiter plates coated with 0.01% poly-L-lysine, and grown for 1 day in culture in 200 μl growth medium (DMEM, 10% FCS, Penicillin (100 IU/ml), Streptomycin (100 μg/ml)). On the day of analysis, growth medium was removed and the cells were washed once with 150 μl Tyrode's buffer (Tyrode's Salts (9.6 g/l), 10 mM HEPES, pH 7.4). […] The Assay buffer was removed and cells are lysed in 80 μl Lysis buffer (0.1% w/v BSA, 5 mM HEPES, 0.3% v/v Tween-20) per well. From each well 10 μl of lysed cells were transferred to a 384-well plate and mixed with 15 μl bead-mix (1 Unit/15 μl anti-cAMP Acceptor Beads, 1 Unit/15 μl Donor Beads, and 1 Unit/15 μl Biotinylated cAMP in Assay Buffer). The plates were mixed and incubated in the dark for an hour at room temperature before measuring using an Envision™ plate reader (Perkin-Elmer).
The resulting cAMP curves were plotted as absolute cAMP concentrations (nM) over log (test compound concentration) and analyzed using the curve fitting program XLfit.
Parameters calculated to describe both the potency as well as the agonistic activity of each test compound on the receptors were:
EC50, a concentration resulting in a half-maximal elevation of cAMP levels, reflecting the potency of the test compound.

[4] abbreviates: Table 2b (most comprehensive data), average EC50, cAMP, HEK293 cells expressing human GCG R, read-out: GCG R (EC50 in nM).
Setting [5] is: Table 2b (most comprehensive data).
Where [6] appears, read: Table 2b (most comprehensive data), average EC50, cAMP, read-out: GIP R (EC50 in nM).
The mark [7] stands for this setting: GIP R (EC50 in nM), Table 2, average EC50, cAMP.
[8] abbreviates: GIP R (EC50 in nM), Table 2b (most comprehensive data), average EC50, cAMP.

T1 sequence (P47871 26-477): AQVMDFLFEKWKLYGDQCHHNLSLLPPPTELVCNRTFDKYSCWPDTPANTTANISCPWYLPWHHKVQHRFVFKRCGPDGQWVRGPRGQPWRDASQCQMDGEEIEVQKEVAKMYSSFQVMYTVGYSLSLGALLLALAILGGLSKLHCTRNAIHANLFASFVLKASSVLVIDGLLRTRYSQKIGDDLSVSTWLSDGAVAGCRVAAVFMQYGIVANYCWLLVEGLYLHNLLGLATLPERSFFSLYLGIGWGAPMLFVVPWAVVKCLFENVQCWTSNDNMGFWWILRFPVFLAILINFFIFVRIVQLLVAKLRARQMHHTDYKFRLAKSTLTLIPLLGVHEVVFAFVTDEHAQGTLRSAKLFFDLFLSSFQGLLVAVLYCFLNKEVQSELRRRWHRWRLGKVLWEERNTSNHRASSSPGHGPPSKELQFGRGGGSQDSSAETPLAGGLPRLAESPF
T2 sequence (P43220 24-463): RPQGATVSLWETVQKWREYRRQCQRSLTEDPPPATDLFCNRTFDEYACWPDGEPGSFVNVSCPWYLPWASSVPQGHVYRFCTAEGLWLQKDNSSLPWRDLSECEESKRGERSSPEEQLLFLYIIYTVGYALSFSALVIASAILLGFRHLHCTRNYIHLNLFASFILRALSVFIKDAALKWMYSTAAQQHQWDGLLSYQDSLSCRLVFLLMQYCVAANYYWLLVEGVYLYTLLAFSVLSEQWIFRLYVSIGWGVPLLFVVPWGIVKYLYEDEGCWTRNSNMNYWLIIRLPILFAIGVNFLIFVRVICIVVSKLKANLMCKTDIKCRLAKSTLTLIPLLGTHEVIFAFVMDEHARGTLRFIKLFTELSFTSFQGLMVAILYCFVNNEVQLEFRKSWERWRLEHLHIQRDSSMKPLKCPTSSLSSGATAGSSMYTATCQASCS

On to `CCCCCCCCCCCCCCCCCC(=O)N[C@@H](CCC(=O)NCCOCCOCC(=O)NCCOCCOCC(=O)NCCCC[C@H](NC(=O)[C@H](CCCCN)NC(=O)[C@H](CC(=O)O)NC(=O)[C@H](CC(C)C)NC(=O)[C@H](Cc1ccc(O)cc1)NC(=O)[C@@H](NC(=O)[C@H](CO)NC(=O)[C@H](Cc1ccc(O)cc1)NC(=O)[C@H](CC(=O)O)NC(=O)[C@H](CO)NC(=O)[C@@H](NC(=O)[C@H](Cc1ccccc1)NC(=O)[C@@H](NC(=O)CNC(=O)[C@H](CCC(N)=O)NC(=O)C(C)(C)NC(=O)[C@@H](N)Cc1ccc(O)cc1)[C@@H](C)O)[C@@H](C)O)[C@@H](C)CC)C(=O)N[C@@H](C)C(=O)N[C@@H](CCC(N)=O)C(=O)N[C@@H](CCCNC(=N)N)C(=O)N[C@@H](C)C(=O)N[C@@H](Cc1ccccc1)C(=O)N[C@H](C(=O)N[C@@H](CCC(=O)O)C(=O)N[C@@H](Cc1c[nH]c2ccccc12)C(=O)N[C@@H](CC(C)C)C(=O)N[C@@H](CC(C)C)C(=O)N[C@@H](C)C(=O)N[C@@H](CCC(N)=O)C(=O)NCC(=O)N1CCC[C@H]1C(=O)N[C@@H](CO)C(=O)N[C@@H](CO)C(=O)NCC(=O)N[C@@H](C)C(=O)N1CCC[C@H]1C(=O)N1CCC[C@H]1C(=O)N1CCC[C@H]1C(=O)N[C@@H](CO)C(N)=O)C(C)C)C(=O)O` [Compound 35] (H-Y[Aib]QGTFTSDYSIYLDKK([AEEA-AEEA-γGlu-Stearoyl])AQRAFVEWLLAQGPSSGAPPPS-NH2), for which the concentration giving a half-maximal response (EC50) (in general, the concentration that produces a half-maximal response) in assay [1] (setting [4]) is 0.011 nM; in assay [2] (setting [5]) it was 1.85 nM; in assay [3] (setting [6]), 0.012 nM.

On to `CC(C)C[C@H](NC(=O)[C@H](C)NC(=O)[C@H](CCCCN)NC(=O)[C@H](CO)NC(=O)[C@H](Cc1ccc(O)cc1)NC(=O)[C@H](CC(=O)O)NC(=O)[C@H](CO)NC(=O)[C@@H](NC(=O)[C@H](Cc1ccccc1)NC(=O)[C@@H](NC(=O)CNC(=O)[C@H](CCC(N)=O)NC(=O)C(C)(C)NC(=O)[C@@H](N)Cc1ccc(O)cc1)[C@@H](C)O)[C@@H](C)O)C(=O)N[C@@H](CC(=O)O)C(=O)N[C@@H](CCC(=O)O)C(=O)N[C@@H](CCCCN)C(=O)N[C@@H](C)C(=O)N[C@@H](C)C(=O)N[C@@H](CCCCN)C(=O)N[C@@H](CCC(=O)O)C(=O)N[C@@H](Cc1ccccc1)C(=O)N[C@H](C(=O)N[C@@H](CCC(=O)O)C(=O)N[C@@H](Cc1c[nH]c2ccccc12)C(=O)N[C@@H](CC(C)C)C(=O)N[C@@H](CC(C)C)C(=O)N[C@@H](CO)C(=O)N[C@@H](C)C(N)=O)C(C)C` [Compound 21] (HELM PEPTIDE1{Y.[Aib].Q.G.T.F.T.S.D.Y.S.K.A.L.D.E.K.A.A.K.E.F.V.E.W.L.L.S.A.[am]}$$$$V2.0), for which the EC50 in assay [1] came out at 0.1 nM; in assay [2] (Table 2), 0.014 nM; in assay [2] (setting [5]) it was 0.1 nM; in assay [3] (setting [7]), 0.18 nM; in assay [3] (setting [8]) it was 0.015 nM.

With `CC[C@H](C)[C@H](NC(=O)[C@H](CO)NC(=O)[C@H](Cc1ccc(O)cc1)NC(=O)[C@H](CC(=O)O)NC(=O)[C@H](CO)NC(=O)[C@@H](NC(=O)[C@H](Cc1ccccc1)NC(=O)[C@@H](NC(=O)CNC(=O)[C@H](CCC(N)=O)NC(=O)C(C)(C)NC(=O)[C@@H](N)Cc1ccc(O)cc1)[C@@H](C)O)[C@@H](C)O)C(=O)N[C@@H](Cc1ccc(O)cc1)C(=O)N[C@@H](CC(C)C)C(=O)N[C@@H](CCC(=O)O)C(=O)N[C@@H](CCCCN)C(=O)N[C@@H](CCCCNC(=O)COCCOCCNC(=O)COCCOCCNC(=O)CC[C@H](NC(=O)CCCCCCCCCCCCCCCCC(=O)O)C(=O)O)C(=O)N[C@@H](C)C(=O)N[C@@H](CCC(N)=O)C(=O)N[C@@H](CCCNC(=N)N)C(=O)N[C@@H](C)C(=O)N[C@@H](Cc1ccccc1)C(=O)N[C@H](C(=O)N[C@@H](CCC(=O)O)C(=O)N[C@@H](Cc1c[nH]c2ccccc12)C(=O)N[C@@H](CC(C)C)C(=O)N[C@@H](CC(C)C)C(=O)N[C@@H](CCCNC(=N)N)C(=O)N[C@@H](C)C(N)=O)C(C)C` [Compound 51] (H-Y[Aib]QGTFTSDYSIYLEKK([AEEA-AEEA-γGlu-C18 diacid])AQRAFVEWLLRA-NH2), the EC50 in assay [1] (setting [4]) was determined as 1.4 nM; in assay [2] (setting [5]), 0.026 nM; in assay [3] (setting [6]), 0.033 nM.

With `CCCCCCCCCCCCCCCCCC(=O)N[C@@H](CCC(=O)NCCOCCOCC(=O)NCCOCCOCC(=O)NCCCC[C@H](NC(=O)[C@H](CCCCN)NC(=O)[C@H](CCC(=O)O)NC(=O)[C@H](CC(C)C)NC(=O)[C@H](C)NC(=O)[C@@H](NC(=O)[C@H](CO)NC(=O)[C@H](CC(C)C)NC(=O)[C@H](CC(=O)O)NC(=O)[C@H](CO)NC(=O)[C@@H](NC(=O)[C@H](Cc1ccccc1)NC(=O)[C@@H](NC(=O)CNC(=O)[C@H](CCC(N)=O)NC(=O)C(C)(C)NC(=O)[C@@H](N)Cc1ccc(O)cc1)[C@@H](C)O)[C@@H](C)O)[C@@H](C)CC)C(=O)N[C@@H](C)C(=O)N[C@@H](CCC(N)=O)C(=O)N[C@@H](CCCNC(=N)N)C(=O)N[C@@H](C)C(=O)N[C@@H](Cc1ccccc1)C(=O)N[C@H](C(=O)N[C@@H](CCC(=O)O)C(=O)N[C@@H](Cc1c[nH]c2ccccc12)C(=O)N[C@@H](CC(C)C)C(=O)N[C@@H](CC(C)C)C(=O)N[C@@H](C)C(=O)N[C@@H](CCC(N)=O)C(=O)N[C@@H](CCCCN)C(N)=O)C(C)C)C(=O)O` [Compound 48] (H-Y[Aib]QGTFTSDLSIALEKK([AEEA-AEEA-γGlu-Stearoyl])AQRAFVEWLLAQK-NH2), the figures for the EC50 in assay [1] (setting [4]), in assay [2] (setting [5]) and in assay [3] (setting [6]) were 0.19 nM, 0.013 nM and 0.013 nM, respectively.

As for `CC[C@H](C)[C@H](NC(=O)[C@H](CO)NC(=O)[C@H](Cc1ccc(O)cc1)NC(=O)[C@H](CC(=O)O)NC(=O)[C@H](CO)NC(=O)[C@@H](NC(=O)[C@H](Cc1ccccc1)NC(=O)[C@@H](NC(=O)CNC(=O)[C@H](CCC(N)=O)NC(=O)C(C)(C)NC(=O)[C@@H](N)Cc1ccc(O)cc1)[C@@H](C)O)[C@@H](C)O)C(=O)N[C@@H](Cc1ccc(O)cc1)C(=O)N[C@@H](CC(C)C)C(=O)N[C@@H](CC(=O)O)C(=O)N[C@@H](CO)C(=O)N[C@@H](CCCCN)C(=O)N[C@@H](C)C(=O)N[C@@H](C)C(=O)N[C@@H](Cc1c[nH]cn1)C(=O)N[C@@H](CC(=O)O)C(=O)N[C@@H](Cc1ccccc1)C(=O)N[C@H](C(=O)N[C@@H](CCC(=O)O)C(=O)N[C@@H](Cc1c[nH]c2ccccc12)C(=O)N[C@@H](CC(C)C)C(=O)N[C@@H](CC(C)C)C(=O)N[C@@H](CO)C(=O)N[C@@H](C)C(N)=O)C(C)C` [Compound 5] (HELM PEPTIDE1{Y.[Aib].Q.G.T.F.T.S.D.Y.S.I.Y.L.D.S.K.A.A.H.D.F.V.E.W.L.L.S.A.[am]}$$$$V2.0), the EC50 in assay [1] turned out to be 0.065 nM; in assay [2] (Table 2), 0.0092 nM; in assay [3] (setting [7]), 0.17 nM; in assay [3] (setting [8]), 0.009 nM.

On to `CC[C@H](C)[C@H](NC(=O)[C@H](CO)NC(=O)[C@H](Cc1ccc(O)cc1)NC(=O)[C@H](CC(=O)O)NC(=O)[C@H](CO)NC(=O)[C@@H](NC(=O)[C@H](Cc1ccccc1)NC(=O)[C@@H](NC(=O)CNC(=O)[C@H](CCC(N)=O)NC(=O)C(C)(C)NC(=O)[C@@H](N)Cc1ccc(O)cc1)[C@@H](C)O)[C@@H](C)O)C(=O)N[C@@H](Cc1ccc(O)cc1)C(=O)N[C@@H](CC(C)C)C(=O)N[C@@H](CC(=O)O)C(=O)N[C@@H](CCC(=O)O)C(=O)N[C@@H](CCCCN)C(=O)N[C@@H](C)C(=O)N[C@@H](C)C(=O)N[C@@H](Cc1c[nH]cn1)C(=O)N[C@@H](CC(=O)O)C(=O)N[C@@H](Cc1ccccc1)C(=O)N[C@H](C(=O)N[C@@H](CCC(=O)O)C(=O)N[C@@H](Cc1c[nH]c2ccccc12)C(=O)N[C@@H](CC(C)C)C(=O)N[C@@H](CC(C)C)C(=O)N[C@@H](CO)C(=O)N[C@@H](C)C(N)=O)C(C)C` [Compound 9] (HELM PEPTIDE1{Y.[Aib].Q.G.T.F.T.S.D.Y.S.I.Y.L.D.E.K.A.A.H.D.F.V.E.W.L.L.S.A.[am]}$$$$V2.0), for which the EC50 in assay [1] came out at 0.097 nM; in assay [2] (Table 2), 0.0055 nM; in assay [3] (setting [7]), 0.056 nM.

On to `CC(C)C[C@H](NC(=O)[C@H](CC(C)C)NC(=O)[C@H](Cc1c[nH]c2ccccc12)NC(=O)[C@H](CCC(=O)O)NC(=O)[C@@H](NC(=O)[C@H](Cc1ccccc1)NC(=O)[C@H](CC(=O)O)NC(=O)[C@H](Cc1c[nH]cn1)NC(=O)[C@H](C)NC(=O)[C@H](C)NC(=O)[C@H](CCCCN)NC(=O)[C@H](CO)NC(=O)[C@H](CC(=O)O)NC(=O)[C@H](CC(C)C)NC(=O)[C@H](Cc1ccc(O)cc1)NC(=O)[C@H](CCCCN)NC(=O)[C@H](CO)NC(=O)[C@H](Cc1ccc(O)cc1)NC(=O)[C@H](CC(=O)O)NC(=O)[C@H](CO)NC(=O)[C@@H](NC(=O)[C@H](Cc1ccccc1)NC(=O)[C@@H](NC(=O)CNC(=O)[C@H](CCC(N)=O)NC(=O)[C@H](CO)NC(=O)[C@@H](N)Cc1ccc(O)cc1)[C@@H](C)O)[C@@H](C)O)C(C)C)C(=O)N[C@@H](CCCNC(=N)N)C(=O)N[C@@H](C)C(N)=O` [Compound 1] (H-YSQGTFTSDYSKYLDSKAAHDFVEWLLRA-NH2), for which the EC50 in assay [1] came out at 0.013 nM; in assay [2] (Table 2) it was 0.033 nM; in assay [2] (setting [5]), 0.013 nM; in assay [3] (setting [7]), 0.38 nM; in assay [3] (setting [8]), 0.033 nM.
